According to patent publication US20210393642A1, “COMPOSITION FOR PREVENTING OR TREATING SJOGREN'S SYNDROME” (SAMJIN PHARMACEUTICAL CO., LTD., priority 2018, published 2021):

How the values were obtained:
[1] = tested on: BAFF; experiment: Quantitative RT-PCR of mRNA in lacrimal and salivary gland tissues, BAFF; type: in vivo, mice; conditions: N=6
[2] = tested on: IL-22; experiment: Quantitative RT-PCR of mRNA in lacrimal and salivary gland tissues, IL-22; type: in vivo, mice; conditions: N=6
[3] = tested on: IL-17A; experiment: Quantification (ELISA) of cytokine IL-17A in plasma; type: in vivo, mice; conditions: versus control, N=3, FIG. 5
Text: (§1) As markers of Sjogren's syndrome, anti-SSA/Ro (Signosis, #EA-5202, US) and anti-SSB/La (Signosis, #EA-5204, US), which are autoantibodies based on RNP particles, and interleukin-17A cytokine (Signosis, #EA-2516, US) which is involved in the onset of autoimmune diseases, were quantified by Enzyme-linked ImmunoSorbent Assay (ELISA) in order to determine the secretion and production of these markers in serum.

[4] = tested on: IL-21; experiment: Quantitative RT-PCR of mRNA in lacrimal and salivary gland tissues, IL-21; type: in vivo, mice; conditions: N=6
[5] = tested on: IL-18; experiment: Quantitative RT-PCR of mRNA in lacrimal and salivary gland tissues, IL-18; type: in vivo, mice; conditions: N=6
[6] = tested on: IL-12; experiment: Quantitative RT-PCR of mRNA in lacrimal and salivary gland tissues, IL-12; type: in vivo, mice; conditions: N=6
[7] = tested on: disease model of Sjogren's syndrome (Nfkbiz^−/− or IkB-ξ-deficient mice, C57BL/6); experiment: Tear production measurement (Schirmer test, phenol red thread); type: in vivo; conditions: oral, 80 mg/kg b.i.d, 5 weeks; versus control (Ctrl) group; N=11; FIG. 1
Method: Hereinafter, experiments for evaluating the anti-inflammatory effect and tissue regeneration effect of oral administration of the composition according to one embodiment of the present invention by using a disease model of Sjogren's syndrome (Nfkbiz^−/− or IkB-ξ-deficient mice, C57BL/6) will be described in detail.
Tear production was measured using a phenol red thread (Zone-Quick; Oasis, Glendora, Calif.) 1 minute after animal anesthesia. One end of the phenol red thread was placed against the lower eyelid of the lateral canthus of the animal eye and left to stand for 60 seconds. After the thread was soaked with tear by the capillary phenomenon, the length (mm) of the thread whose color changed was measured. When the amount of tear secretion decreases, dry eye caused by Sjogren syndrome symptoms is promoted. Thus, it was determined that the greater the amount of tear secretion, the greater the effect of the test substance.

[8] = tested on: FLT3L; experiment: Quantitative RT-PCR of mRNA in lacrimal and salivary gland tissues, FLT3L; type: in vivo, mice; conditions: N=6
[9] = tested on: p-AKT; experiment: Protein expression in lacrimal and salivary gland tissues (immunoblotting), p-AKT; type: in vivo, mice; conditions: versus control, N=3, FIG. 3
Method: (§2) The lacrimal gland and salivary gland tissues of the test animals were isolated, placed in PBS, and homogenized on ice. 1 ml of RIPA lysis buffer (50 mM Tris-Cl pH7.4, 150 mM NaCl, 1 mM EDTA, 1% Triton X-100, 0.1% SDS, 1% sodium deoxycholate, 0.5 mM phenylmethylsulfonyl fluoride, 2 μg/ml leupeptin, 2 μg/ml aprotinin, 10 mM NaF, and 1 mM sodium orthovanadate) was added to each homogenized tissue which was then kept on ice for 5 minutes. Each tissue solution was then centrifuged (at 13000 rpm for 20 mins), and only the supernatant was collected, and then protein correction was performed. Samples were incubated with anti-Akt (1:400) and anti-interleukin 17A (1:200) antibodies and subjected to immunoprecipitation (IP) (overnight), followed by sampling. Each of the samples was subjected to SDS-PAGE and transferred to polyvinylidene fluoride (PVDF) membranes. Then, the Akt-IP-samples were incubated with phospho-Akt (S473) (diluted at 1:100,000 in blocking buffer (TBS+Tween20)+0.1% skim milk) at 4° C. overnight, and the IL-17A-IP-samples were incubated with IL-17A primary antibody (diluted at 1:100,000 in blocking buffer (TBS+Tween20)+0.1% skim milk) at 4° C. overnight. Next, the samples were incubated with HRP-conjugated secondary antibody, and then protein bands were visualized with ECL solution in the dark and quantified by exposure to X-ray films.

[10] = tested on: CXCR5; experiment: Quantitative RT-PCR of mRNA in lacrimal and salivary gland tissues, CXCR5; type: in vivo, mice; conditions: N=6
[11] = tested on: CXCL13; experiment: Quantitative RT-PCR of mRNA in lacrimal and salivary gland tissues, CXCL13; type: in vivo, mice; conditions: N=6
[12] = tested on: IL-17A; experiment: Quantitative RT-PCR of mRNA in lacrimal and salivary gland tissues, IL-17A; type: in vivo, mice; conditions: N=6
[13] = tested on: IL-6; experiment: Quantitative RT-PCR of mRNA in lacrimal and salivary gland tissues, IL-6; type: in vivo, mice; conditions: N=6
[14] = tested on: IFN-α; experiment: Quantitative RT-PCR of mRNA in lacrimal and salivary gland tissues, IFN-α; type: in vivo, mice; conditions: N=6
[15] = tested on: anti-SSB/La; experiment: Quantification (ELISA) of autoantibody anti-SSB/La in plasma; type: in vivo, mice
Text: as §1

[16] = tested on: IL-17A; experiment: Protein expression in lacrimal and salivary gland tissues (immunoblotting), IL-17A; type: in vivo, mice; conditions: dose of 100 mg/kg as printed; compared to control group; FIG. 3
Method: as §2

[17] = tested on: interferon-g; experiment: Quantitative RT-PCR of mRNA in lacrimal and salivary gland tissues, interferon-g; type: in vivo, mice; conditions: N=6
[18] = tested on: TNF-α; experiment: Quantitative RT-PCR of mRNA in lacrimal and salivary gland tissues, TNF-α; type: in vivo, mice; conditions: N=6
[19] = tested on: anti-SSA/Ro; experiment: Quantification (ELISA) of autoantibody anti-SSA/Ro in plasma; type: in vivo, mice
Text: as §1

[20] = tested on: IL-13; experiment: Quantitative RT-PCR of mRNA in lacrimal and salivary gland tissues, IL-13; type: in vivo, mice; conditions: N=6
[21] = tested on: disease model of Sjogren's syndrome (Nfkbiz^−/− or IkB-ξ-deficient mice, C57BL/6); experiment: Analysis of inflammatory phenotypes in animals (disease scores); type: in vivo; conditions: compared to control group, from 2 weeks after administration; N=11; FIG. 7
Text: The degree of inflammation in the animal model was scored according to the following criteria and analyzed.
2: eyes with discharge that were difficult to open
3: periocular skin erosion
4: inflammation reaching perioral skin
5: erosion and loss of hair in whole face.

[22] = tested on: IL-2; experiment: Quantitative RT-PCR of mRNA in lacrimal and salivary gland tissues, IL-2; type: in vivo, mice; conditions: N=6, FIGS. 4a, 4b
[23] = IkB-ξ-deficient male mice, 80 mg/kg, n = 3, vehicle = 100.0

`O=C(NC(Cc1cc(=O)[nH]c2ccccc12)C(=O)OCCN1CCOCC1)c1ccc(Cl)cc1.O=C(O)CC(=O)O` (stereo not drawn) [SA001, 2-(morpholin-4-yl)ethyl 2-(4-chlorobenzoylamino)-3-(2-oxo-1,2-dihydroquinolin-4-yl)propionate malonate] was tested, and the “BAFF mRNA, decrease compared with control” value ([1]; lacrimal glands) was 1.6 fold, the “BAFF mRNA, decrease compared with control” value ([1]; salivary glands) was “not significant” and the “IL-22 mRNA, decrease compared with control” value ([2]; lacrimal glands) was 1.7 fold. For the same compound, the “IL-22 mRNA, decrease compared with control” value ([2]; salivary glands) was 1.6 fold, the IL-17A in plasma [3] was “decreased” and the “IL-21 mRNA, decrease compared with control” value ([4]; lacrimal glands) was 1.6 fold. For the same compound, the “IL-21 mRNA, decrease compared with control” value ([4]; salivary glands) was 20 fold, the “IL-18 mRNA, decrease compared with control” value ([5]; lacrimal glands) was “not significant” and the “IL-18 mRNA, decrease compared with control” value ([5]; salivary glands) was 1.6 fold. For the same compound, the “IL-12 mRNA, decrease compared with control” value ([6]; lacrimal glands) was 10 fold, the “IL-12 mRNA, decrease compared with control” value ([6]; salivary glands) was “not significant” and the tear production [7] was “significantly increased”. For the same compound, the “FLT3L mRNA, decrease compared with control” value ([8]; lacrimal glands) was 2.5 fold, the “FLT3L mRNA, decrease compared with control” value ([8]; salivary glands) was 13 fold and the “expression of p-AKT (activated form of Akt)” value [9] was “significantly increased”. The “CXCR5 mRNA, decrease compared with control” value ([10]; lacrimal glands) was “not significant”, the “CXCR5 mRNA, decrease compared with control” value ([10]; salivary glands) was 2.5 fold and the “CXCL13 mRNA, decrease compared with control” value ([11]; lacrimal glands) was 2.5 fold. For the same compound, the “CXCL13 mRNA, decrease compared with control” value ([11]; salivary glands) was 5 fold, the “IL-17A mRNA, decrease compared with control” value ([12]; lacrimal glands) was 2.8 fold and the “IL-17A mRNA, decrease compared with control” value ([12]; salivary glands) was 3.3 fold. For the same compound, the “IL-6 mRNA, decrease compared with control” value ([13]; lacrimal glands) was 2 fold, the “IL-6 mRNA, decrease compared with control” value ([13]; salivary glands) was 2.5 fold and the “IFN-α mRNA, decrease compared with control” value ([14]; lacrimal glands) was 1.6 fold. For the same compound, the “IFN-α mRNA, decrease compared with control” value ([14]; salivary glands) was 40 fold, the “SSB/La, No. (%)” value [15, 23] was 67.9 ± 12.4% and the “anti-SSB in plasma, decrease compared to control group” value ([15]; N=3, FIG. 5) was 30%. For the same compound, the “protein expression of IL-17A in the lacrimal gland and salivary gland tissues” value [16] was “significantly decreased”, the “interferon-g mRNA, decrease compared with control” value ([17]; lacrimal glands) was 1.3 fold and the “interferon-g mRNA, decrease compared with control” value ([17]; salivary glands) was 1.3 fold. For the same compound, the “TNF-α mRNA, decrease compared with control” value ([18]; lacrimal glands) was 1.6 fold, the “TNF-α mRNA, decrease compared with control” value ([18]; salivary glands) was 2.2 fold and the “SSA/Ro, No. (%)” value [19, 23] was 61.0 ± 8.7%. The “anti-SSA in plasma, decrease compared to control group” value ([19]; N=3, FIG. 5) was 40%, the “IL-13 mRNA, decrease compared with control” value ([20]; lacrimal glands) was 2 fold and the “IL-13 mRNA, decrease compared with control” value ([20]; salivary glands) was 10 fold. For the same compound, the “onset of the disease (disease score, inflammatory phenotype on five-point scale)” value [21] was “significantly slowed”, the “IL-2 mRNA, decrease compared with control” value ([22]; lacrimal glands) was 4.5 fold and the “IL-2 mRNA, decrease compared with control” value ([22]; salivary glands) was 1.3 fold.
